Molecules are shown by their SMILES.

A short description of one series: in vitro. Conditions: human, hela cells, % viability.
One may read the viability as a read-out of living cells in per cent, often relative to untreated cells. `Cc1ccc(S(=O)(=O)NCC(=O)Nc2ccc(C)cc2C(=O)c2ccccc2)cc1` [CBK265199]: the viability at 28.5 h, 10 µM was determined as 85.8%.
Still for that read-out and setting: with `COC(=O)c1ccc(C2N(Cc3ccccc3)CCN2Cc2ccccc2)cc1` [CBK265201] the figure was 87.3%; with `Cc1cccc(Nc2nc(N)nc(CC(=O)CSc3ccc(Cl)cc3)n2)c1` [CBK265204], 104%.
For `COc1ccc(-c2nnc(SCc3csc(Nc4ccccc4)n3)n2-c2ccccc2)cc1` [CBK265205], the viability at 28.5 h, 10 µM was 89.1%.
The same measure, in the same setting: as for `Oc1ccc(/C=N/n2c(S)nnc2C(F)(F)F)cc1` [CBK265206], the figure is 98.6%; as for `Clc1ccc(CN2CCN(Cc3ccc(Cl)cc3)C2c2ccncc2)cc1` [CBK265207], 104%.
Regarding `NS(=O)(=O)c1ccc(NC(=O)C2Cc3ccccc3CN2S(=O)(=O)c2ccc(F)cc2)cc1` (stereo not shown) [CBK265208], the viability at 28.5 h, 10 µM amounted to 103%.
`Cn1c(SCC(=O)N2CCN(c3ccccc3)CC2)nnc1-c1cccc([N+](=O)[O-])c1` [CBK265209]: the viability at 28.5 h, 10 µM came out at 105%.
`COc1cc(CN2CCN(C(=O)c3cccnc3)CC2)cc(OC)c1O` [CBK265210G]: the viability at 28.5 h, 10 µM stood at 85.2%.
As for `CC(C)C(=O)Nc1cccc(NC(=O)COc2ccc(Br)cc2)c1` [CBK265211], the viability at 28.5 h, 10 µM stood at 94%.
As for `CCOC(=O)c1c(NC(=O)CN2CC(C)OC(C)C2)sc2c1CCCC2` (stereo not shown) [CBK265216], the viability at 28.5 h, 10 µM stood at 103%.
The same measure, in the same setting: with `CC(=O)Nc1ccc(N2C(=O)CC(N3CCN(Cc4ccc5c(c4)OCO5)CC3)C2=O)cc1` (stereo not shown) [CBK265217] the figure was 106%.
Still for that read-out and setting: with `Sc1nnc(CSCc2ccccc2Cl)n1-c1ccccc1` [CBK265219] the figure was 100%; with `CN1CCN(C(S)=Nc2ccc(S(N)(=O)=O)cc2)CC1` [CBK265223], 92.5%; with `COc1cc(C2N(Cc3ccccc3)CCCN2Cc2ccccc2)c([N+](=O)[O-])cc1OC` [CBK265224], 88.2%.
On the same count and under the same terms, as for `O=C(/C=C/c1ccc(F)cc1)NCCc1ccc(S(=O)(=O)N2CCCC2)cc1` [CBK265227], the figure is 81.8%; as for `N/C(=N/OCC(=O)Nc1cccc2ccccc12)c1nonc1N` [CBK265234], 90.6%.
Turning to `O=[N+]([O-])c1ccc(/C=N/n2c(S)nnc2COc2ccccc2)cc1` [CBK265240], the viability at 28.5 h, 10 µM turned out to be 91.5%.
On the same count and under the same terms, as for `CC(=O)Nc1ccc(S(=O)(=O)N2CCCCC2C(=O)O)cc1` (stereo not shown) [CBK265241], the figure is 102%; as for `CCOc1cc(/C=C2\SC(=N)NC2=O)ccc1OS(=O)(=O)c1ccc(NC(C)=O)cc1` [CBK265243], 94%.
Take `COc1cccc(NC(=S)NCCc2ccccn2)c1` [CBK265245]: the viability at 28.5 h, 10 µM turned out to be 96.9%.
Still for that read-out and setting: as for `Cn1nc([N+](=O)[O-])nc1OCc1nc2ccccc2n1C` [CBK265247], the figure is 88.9%; as for `COC(=O)Nc1ccc(S(=O)(=O)N2CCCC(C(=O)Nc3cccc(C(F)(F)F)c3)C2)cc1` (stereo not shown) [CBK265248], 92.3%; as for `COC(=O)CN1C(=O)S/C(=C/c2cc(C)n(-c3ccc(S(N)(=O)=O)cc3)c2C)C1=O` [CBK265249], 95.9%.
The same measure, in the same setting: with `O=C(O)CN1/C(=C\C=C2/SC(=S)N(c3ccccc3)C2=O)Sc2ccccc21` [CBK265251] the figure was 86.3%.
Still for that read-out and setting: as for `O=C(O)COc1ccccc1/C=N/n1c(S)nnc1-c1ccncc1` [CBK265253], the figure is 111%; as for `O=[N+]([O-])c1ccccc1S(=O)(=O)NCCSCc1c(F)cccc1Cl` [CBK265259], 102%.
On to `FC(F)(F)c1ccccc1/C=N/n1c(S)nnc1COc1ccccc1` [CBK265260], for which the viability at 28.5 h, 10 µM was found to be 99.7%.
`COc1ccc(Cl)cc1NC(=O)CN(c1ccccc1)S(=O)(=O)c1ccc(Cl)cc1` [CBK265261]: the viability at 28.5 h, 10 µM turned out to be 105%.
On the same count and under the same terms, with `CS(=O)(=O)N(CC(=O)Nc1ccccc1F)c1ccc(I)cc1` [CBK265265] the figure was 97.4%.
As for `O=C(O)C(Cc1ccccc1)Nc1ncnc2sc3c(c12)CCC3` (stereo not shown) [CBK265266], the viability at 28.5 h, 10 µM was 90.2%.
Turning to `CC12CCC(C(=O)O)(C/C1=N\N)C2(C)C` (stereo not shown) [CBK265268], the viability at 28.5 h, 10 µM was 113%.
Still for that read-out and setting: as for `COC(=O)CN1C(=O)S/C(=C/c2cc(C)n(-c3ccc4ncccc4c3)c2C)C1=O` [CBK265275], the figure is 121%; as for `COc1ccc(C2=NN(c3ccc([N+](=O)[O-])cc3)C(=O)/C2=C/NCc2ccccn2)cc1` [CBK265276], 107%.
Still for that read-out and setting: with `O=C(CCc1ccccc1)NC(c1cccc([N+](=O)[O-])c1)c1c(O)ccc2ccccc12` (stereo not shown) [CBK265278] the figure was 109%; with `COc1cc(/C=C2\SC(=S)N(c3cccc(C(=O)O)c3)C2=O)cc([N+](=O)[O-])c1O` [CBK265281], 96.2%; with `O=C(O)CCn1cc(/C=C2\SC(=S)NC2=O)c(-c2cccc(Br)c2)n1` [CBK265287], 110%.
Still for that read-out and setting: as for `Oc1ccc(/C=C/c2nc(-c3ccccc3O)n(-c3ccccc3)n2)cc1` [CBK265289], the figure is 74.4%; as for `O=C(CN(c1ccccc1)S(=O)(=O)c1ccccc1)N1CCN(Cc2ccc3c(c2)OCO3)CC1` [CBK265290], 90%.
In the case of `O=C(Nc1cccc([N+](=O)[O-])c1)c1ccc(CSc2ccccc2)cc1` [CBK265295], the viability at 28.5 h, 10 µM came out at 117%.
Still for that read-out and setting: as for `CCOC(=O)c1cnc2c(C)c(Cl)ccc2c1NCCCN1CCOCC1` [CBK265296], the figure is 99.6%; as for `CCOC(=O)c1c(NC(=O)/C=C/C(=O)O)sc2c1CCCCC2` [CBK265299], 91.5%.
Regarding `Oc1cccc(/C=N/n2c(S)nnc2-c2ccncc2)c1` [CBK265300], the viability at 28.5 h, 10 µM is 109%.
The same measure, in the same setting: as for `COc1ccc(S(=O)(=O)N(CC(=O)N2CCC(C(N)=O)CC2)c2ccccc2)cc1` [CBK265301], the figure is 108%; as for `Cc1cc(C(=O)Oc2cccc(NC3=NS(=O)(=O)c4ccccc43)c2)c2ccccc2n1` [CBK265302], 96.5%.
The same measure, in the same setting: with `O=S(=O)(NCCSCc1c(Cl)cccc1Cl)c1ccc(Cl)cc1` [CBK265304] the figure was 91.2%.
The same measure, in the same setting: as for `CSc1nc(O)c(C(c2ccc(Cl)cc2)c2c(O)nc(SC)nc2O)c(O)n1` [CBK265306], the figure is 105%; as for `O=C(CNC(=S)NC(=O)c1ccc(Br)o1)c1ccccc1` [CBK265310], 98%.
Turning to `N=C1NC(=O)/C(=C/c2c(OS(=O)(=O)c3ccc(Cl)cc3)ccc3ccccc23)S1` [CBK265311], the viability at 28.5 h, 10 µM was found to be 89.6%.
Same read-out and setting: with `CCNC(=O)c1cc2c(=O)n3cc(C)ccc3nc2n(Cc2ccco2)c1=N` [CBK265312] the figure was 85.8%; with `CSc1nc(O)c(C(c2ccc(C)cc2)c2c(O)nc(SC)nc2O)c(O)n1` [CBK265313], 90.3%.
Still for that read-out and setting: as for `NC(=O)C1CCN(C(=O)CN(c2ccccc2)S(=O)(=O)c2ccccc2[N+](=O)[O-])CC1` [CBK265320], the figure is 78%; as for `COc1ccc(NC(=S)NC(=O)c2cc3c(C)nn(-c4ccccc4)c3s2)cc1[N+](=O)[O-]` [CBK265324], 102%.
Still for that read-out and setting: with `CN(C)CCCOC(=O)C(C)(c1ccccc1)c1ccccc1` [CBK265325C] the figure was 118%.
For the compound `OCCNC(=S)Nc1ccc(Cl)cc1Cl` [CBK265330], the viability at 28.5 h, 10 µM was determined as 106%.
Same read-out and setting: with `N/C(=N\OCC(=O)Nc1ccc(-n2cnnn2)cc1)c1nonc1N` [CBK265331] the figure was 104%; with `Cc1ccc(NC(=O)c2cc(NC(=O)c3ccccc3C(=O)O)ccc2N2CCCCC2)cc1` [CBK265332], 100%; with `COc1ccc(NC(=O)CC2SC(=N)NC2=O)c([N+](=O)[O-])c1` (stereo not shown) [CBK265334], 95.9%.
With `O=C(O)COc1ccccc1/C=N/n1c(S)nnc1-c1cccnc1` [CBK265337], the viability at 28.5 h, 10 µM turned out to be 89.9%.
Consider `O=C(Nc1ccccc1)Nc1ccccc1C(=O)NCc1ccccc1` [CBK265338], for which the viability at 28.5 h, 10 µM was determined as 90.2%.
The same measure, in the same setting: as for `CC(=O)NC(=NOCc1ccc(Br)cc1)c1nonc1NC(C)=O` [CBK265342], the figure is 87.8%; as for `COc1ccccc1NC(=S)NCCN(C)C` [CBK265343], 111%; as for `O=C(O)c1ccc(/C=N/N2CCN(Cc3ccccc3)CC2)cc1` [CBK265344], 108%.
The same measure, in the same setting: as for `O=C(O)CCNc1nc(Cc2ccccc2)nc2sc3c(c12)CCCC3` [CBK265345], the figure is 93.4%.
On the same count and under the same terms, with `CCc1cc2c(NC(C(=O)O)C(C)C)ncnc2s1` (stereo not shown) [CBK265349] the figure was 97.7%; with `Cc1ccc(NC(=O)c2cc(NC(=O)C3C4C=CC(C4)C3C(=O)O)ccc2N2CCCCC2)cc1` (stereo not shown) [CBK265350], 107%; with `CC(=O)Nc1ccc(C(=O)N/C(=C/c2ccccc2)C(=O)O)cc1` [CBK265353], 87.6%.
In the case of `N=C1/C(=C/c2ccc(-c3cccc([N+](=O)[O-])c3)o2)C(=O)N=C2SC(SCc3ccccc3)=NN12` [CBK265354], the viability at 28.5 h, 10 µM worked out at 88.5%.
Still for that read-out and setting: with `Cc1sc2ncn(Cc3c(Cl)cccc3Cl)c(=O)c2c1C` [CBK265355] the figure was 78.8%; with `COc1ccccc1NC(=S)NCCc1ccccn1` [CBK265358], 91.2%.
On the same count and under the same terms, as for `COC(=O)Nc1ccc(S(=O)(=O)N2CCCC(C(=O)Nc3ccc4c(c3)OCO4)C2)cc1` (stereo not shown) [CBK265361], the figure is 89.8%.
On the same count and under the same terms, as for `CS(=O)(=O)N(CC(=O)NCc1ccccn1)c1ccc(I)cc1` [CBK265369], the figure is 78.8%; as for `CC(=O)Oc1ccc(NC(=O)C2CC(Cl)=CCC2C(=O)O)cc1C(=O)O` (stereo not shown) [CBK265372], 100%.
For the compound `O=Cc1cn(CCC(=O)O)nc1-c1cc2ccccc2o1` [CBK265376], the viability at 28.5 h, 10 µM worked out at 90%.

The series is the same for the next values; noted with them: human, hela cells, % viability, bulk resorufin, single well.
As for `CCNC(=S)N1CCN(CCNC=C2C(=O)NC(=O)NC2=O)CC1` [CBK265228], the viability at 28.5 h, 10 µM was 111%.
The same measure, in the same setting: with `O=C(O)CCn1cc(C=C2C(=O)NC(=S)NC2=O)c(-c2cccc([N+](=O)[O-])c2)n1` [CBK265309] the figure was 116%.

(Values after article PMC12040169 (PLOS Biology, 2025).)
